In patent US20050129782A1, “Use of inorganic nanoparticles to stabilize hydrogen peroxide solutions” (Alcon, Inc., priority 2003, published 2005):

Assays:
[1] = Stability of 100 ppm H2O2 at various pHs, heated at 100° C. for 24 hours, KMnO4 titration (Example 3); type: physicochemical; conditions: 60 ppm Dequest 2060 (control); 100 ppm H2O2, pH 6.5; 100° C. 24 hours vs RT
Protocol: The effectiveness of 50 ppm Laponite® XLG to stabilize 100 ppm H2O2 at various pH levels was evaluated.
50 ppm Laponite® XLG was formulated in a phosphate buffer (0.8655% NaCl, 0.0622% sodium phosphate dibasic, 0.0072% sodium phosphate monobasic monohydrate), along with 100 ppm hydrogen peroxide (from a 30% unstabilized solution). 100 mL samples were then adjusted to pH levels of 6.5, 7.0 and 7.5, respectively. 10 mL of each sample was then placed in a test tube, sealed with a screw cap, and heated to 100° C. for 24 hours. After heating, 5 mL of each sample was titrated with 0.002% KMnO4 and compared to the unheated sample to obtain % stability. 60 ppm of Dequest® 2060 at pH 6.5 was used as a control.

[2] = Stability of 3% hydrogen peroxide solutions with stabilizing agents, heated at 100° C. for 24 hours, KMnO4 titration (Example 1); type: physicochemical; conditions: 3% H2O2, phosphate buffer pH 6.5, 100° C. 24 hours vs 25° C.
Protocol: 3% hydrogen peroxide solutions containing three different stabilizing agents were formulated in phosphate buffer at pH 6.5. 10 ml samples were heated in HCl-cleaned test tubes at 100° C. for 24 hours to simulate a two year shelf life. Then a 200 microliter aliquot was added to 40 ml of a 2.75% H2SO4 solution and titrated with 0.01N KMnO4.

Row | % stability [1] [%] | % Stability of H2O2 ([2]; stabilizer 180 ppm) [%] | SMILES | % Stability of H2O2 ([2]; stabilizer 500 ppm) [%]
1 | 92.9 | 98.2 | O=P(O)(O)CN(CCN(CP(=O)(O)O)CP(=O)(O)O)CCN(CP(=O)(O)O)CP(=O)(O)O [Dequest ® 2060] | –
2 | – | – | O=C(O)CN(CCN(CC(=O)O)CC(=O)O)CC(=O)O [EDTA] | 24.8
